In brackets after ≈: the same amount, converted by molar mass. Activity calls are given as the source filed them. The rule behind the calls is not given here. Non-standard residues stand in square brackets, D forms with d. Residues, ends and D or L forms follow the SMILES beside them. Orn = NCCC[C@H](N)C(=O)O
Experiments:
Staphylococcus aureus [1] = assay: Bactericidal activity against clinical isolate amoxicillin resistance Staphylococcus aureus; assay type: functional
Candida albicans [2] = assay: Antifungal activity against Candida albicans; assay type: functional
[3] = Selectivity index, ratio of IC50 for human Chang cells to IC50 for human PANC1 cells
Bacillus cereus [4] = assay: Bactericidal activity against Bacillus cereus; assay type: functional
HepG2 = assay: Cytotoxicity against human HepG2 cells; assay type: functional, cell-based
Staphylococcus aureus [5] = assay: Antibacterial activity against clinical isolate amoxicillin and ciprofloxacin resistance Staphylococcus aureus; assay type: functional
[6] = Selectivity index, ratio of IC50 for human Chang cells to IC50 for human HepG2 cells
Staphylococcus aureus [7] = assay: Antibacterial activity against clinical isolate amoxicillin resistance Staphylococcus aureus; assay type: functional
[8] = test system: Trichophyton mentagrophytes; assay: Antifungal activity against Trichophyton mentagrophytes; assay type: functional
[9] = test system: Trichophyton mentagrophytes; assay: Fungicidal activity against Trichophyton mentagrophytes; assay type: functional
[10] = Hemolytic activity against RBC (unknown origin) at 10 uM; assay type: ADME, cell-based, Erythrocyte; conditions: red blood cells (erythrocytes); read-out: Activity
[11] = Hemolytic activity against RBC (unknown origin) at 240 uM; assay type: ADME, cell-based, Erythrocyte; conditions: red blood cells (erythrocytes); read-out: Activity
MCF7 = assay: Cytotoxicity against human MCF7 cells; assay type: functional, cell-based
PANC-1 = assay: Cytotoxicity against human PANC1 cells; assay type: functional, cell-based
Staphylococcus aureus [12] = assay: Bactericidal activity against Staphylococcus aureus ATCC 209p; assay type: functional
[13] = Cytotoxicity against human Chang cells; assay type: cell-based
Candida albicans [14] = assay: Fungicidal activity against Candida albicans; assay type: functional
[15] = Selectivity index, ratio of IC50 for human Chang cells to IC50 for human M-HeLa cells
[16] = Hemolytic activity against RBC (unknown origin) at 5 uM; assay type: ADME, cell-based, Erythrocyte; conditions: red blood cells (erythrocytes); read-out: Activity
[17] = Hemolytic activity against RBC (unknown origin) at 20 uM; assay type: ADME, cell-based, Erythrocyte; conditions: red blood cells (erythrocytes); read-out: Activity
M-HeLa = assay: Cytotoxicity against human M-HeLa cells; assay type: functional, cell-based
[18] = Hemolytic activity against RBC (unknown origin) at 1 uM; assay type: ADME, cell-based, Erythrocyte; conditions: red blood cells (erythrocytes); read-out: Activity
Bacillus cereus [19] = assay: Antibacterial activity against Bacillus cereus; assay type: functional
[20] = Hemolytic activity against RBC (unknown origin) at 40 uM; assay type: ADME, cell-based, Erythrocyte; conditions: red blood cells (erythrocytes); read-out: Activity
[21] = Hemolytic activity against RBC (unknown origin) at 60 uM; assay type: ADME, cell-based, Erythrocyte; conditions: red blood cells (erythrocytes); read-out: Activity
[22] = Selectivity index, ratio of IC50 for human Chang cells to IC50 for human MCF7 cells
[23] = Hemolytic activity against RBC (unknown origin) at 120 uM; assay type: ADME, cell-based, Erythrocyte; conditions: red blood cells (erythrocytes); read-out: Activity
Staphylococcus aureus [24] = assay: Bactericidal activity against clinical isolate amoxicillin and ciprofloxacin resistance Staphylococcus aureus; assay type: functional
Staphylococcus aureus [25] = assay: Antibacterial activity against Staphylococcus aureus ATCC 209p; assay type: functional
[26] = Hemolytic activity against RBC (unknown origin) at 480 uM; assay type: ADME, cell-based, Erythrocyte; conditions: red blood cells (erythrocytes); read-out: Activity

| SMILES | MBC (Staphylococcus aureus [1]) | MIC (Candida albicans [2]) | MBC (Bacillus cereus [4]) | IC50 (HepG2; read-out: IC50) [µM] | MIC (Staphylococcus aureus [5]) | MIC (Staphylococcus aureus [7]) | MIC [8] | MFC [9] | hemolysis at 10 µM [10] [%] | hemolysis at 240 µM [11] [%] | IC50 (PANC-1) [µM] | MBC (Staphylococcus aureus [12]) | IC50 [13] [µM] | MFC (Candida albicans [14]) | hemolysis at 5 µM [16] [%] | hemolysis at 20 µM [17] [%] | hemolysis at 1 µM [18] [%] | MIC (Bacillus cereus [19]) | MBC (Staphylococcus aureus [24]) | MIC (Staphylococcus aureus [25]) [µM] | also measured |
| --- | --- | --- | --- | --- | --- | --- | --- | --- | --- | --- | --- | --- | --- | --- | --- | --- | --- | --- | --- | --- | --- |
| CCCCCCCCCCCCCC[P+](Cc1ccccc1O)(c1ccccc1)c1ccccc1.[Cl-] | 28.8 µM | 478 µM | 478 µM | 6.6 | 7.2 µM | 7.2 µM | 478 µM | inactive | 0 | 100 | 25 | 14.8 µM | 42.3 | inactive | 0 | 0 | 0 | 3.6 µM | 28.8 µM | 3.6 | Ratio IC50 [3]: 1.7; Ratio IC50 [6]: 6.4; IC50 (MCF7): 6.6 µM; Ratio IC50 [15]: 12.1; IC50 (M-HeLa): 3.5 µM; hemolysis at 40 µM [20]: 0.3%; hemolysis at 60 µM [21]: 74%; Ratio IC50 [22]: 6.4; hemolysis at 120 µM [23]: 100%; hemolysis at 480 µM [26]: 100% |
| COc1cccc2c1C(=O)c1c(O)c3c(c(O)c1C2=O)C[C@@](O)(C(=O)CO)C[C@@H]3O[C@H]1C[C@H](N)[C@H](O)[C@H](C)O1 [DOXORUBICIN] |  |  |  | 3.3 |  |  |  |  |  |  | 3.2 |  | 3 |  |  |  |  |  |  |  |  |
| C=CCCCC[P+](Cc1ccccc1O)(c1ccccc1)c1ccccc1 | inactive | inactive | inactive |  | inactive | inactive | inactive | inactive |  |  |  | inactive |  | inactive |  |  |  | inactive | inactive | 609 |  |
| CC/C(=C(\c1ccccc1)c1ccc(OCCN(C)C)cc1)c1ccccc1 [TAMOXIFEN] |  |  |  |  |  |  |  |  |  |  |  |  | 46.2 |  |  |  |  |  |  |  | IC50 (HepG2): 23.4 µM |
| CCCCCC[P+](Cc1ccccc1O)(c1ccccc1)c1ccccc1.[Cl-] | 151 µM | 606 µM | 152 µM | 83 | 75.6 µM | 37.8 µM | 606 µM | inactive | 0 | 2.5 | 82 | 37.8 µM | 65.3 | inactive | 0 | 0.2 | 0 | 37.8 µM | 302 µM | 18.9 | Ratio IC50 [3]: 0.79; Ratio IC50 [6]: 0.78; IC50 (MCF7): 86 µM; Ratio IC50 [15]: 1.3; IC50 (M-HeLa): 50 µM; hemolysis at 40 µM [20]: 0.2%; hemolysis at 60 µM [21]: 0.3%; Ratio IC50 [22]: 0.76; hemolysis at 120 µM [23]: 0.4%; hemolysis at 480 µM [26]: 4.8% |
| CCCCCCCC[P+](Cc1ccccc1O)(c1ccccc1)c1ccccc1.[Cl-] | 35.4 µM | 284 µM | 17.7 µM | 25.7 | 35.4 µM | 17.7 µM | 284 µM | inactive | 0 | 4.8 | 12.5 | 8.8 µM | 46.3 | inactive | 0 | 0 | 0 | 17.7 µM | 142 µM | 8.8 | Ratio IC50 [3]: 3.7; Ratio IC50 [6]: 1.8; IC50 (MCF7): 12.5 µM; Ratio IC50 [15]: 12.5; IC50 (M-HeLa): 3.7 µM; hemolysis at 40 µM [20]: 0.4%; hemolysis at 60 µM [21]: 0.6%; Ratio IC50 [22]: 3.7; hemolysis at 120 µM [23]: 2.3%; hemolysis at 480 µM [26]: 8.5% |
| O=C(O)c1cn(C2CC2)c2cc(N3CCNCC3)c(F)cc2c1=O [CIPROFLOXACIN] |  |  | 1.5 µM (≈ 0.497 µg/mL) |  |  |  |  |  |  |  |  | 1.5 µM (≈ 0.497 µg/mL) |  |  |  |  |  | 0.7 µM (≈ 0.232 µg/mL) |  | 0.7 (≈ 0.232 µg/mL) |  |
| CCCCCCCCCCCCCCCC[P+](Cc1ccccc1O)(c1ccccc1)c1ccccc1.[Cl-] | 113 µM | 56.6 µM | 452 µM | 12.6 | 28.2 µM | 14.1 µM | 56.6 µM | inactive | 0.9 | 100 | 25.7 | 28.2 µM | 45.2 | inactive | 0.3 | 2.1 | 0.3 | 14.1 µM | inactive | 3.4 | Ratio IC50 [3]: 1.8; Ratio IC50 [6]: 3.6; IC50 (MCF7): 13.2 µM; Ratio IC50 [15]: 14.1; IC50 (M-HeLa): 3.2 µM; hemolysis at 40 µM [20]: 2.5%; hemolysis at 60 µM [21]: 98%; Ratio IC50 [22]: 3.4; hemolysis at 120 µM [23]: 100%; hemolysis at 480 µM [26]: 100% |
| CC(C)C[C@@H]1NC(=O)[C@H](CCCN)NC(=O)[C@H](C(C)C)NC(=O)[C@@H]2CCCN2C(=O)[C@@H](Cc2ccccc2)NC(=O)[C@H](CC(C)C)NC(=O)[C@H](CCCN)NC(=O)[C@H](C(C)C)NC(=O)[C@@H]2CCCN2C(=O)[C@@H](Cc2ccccc2)NC1=O (cyclo(L[dF]PV[Orn]L[dF]PV[Orn])) |  |  |  |  |  |  |  |  | 1.5 | 100 |  |  |  |  | 0.5 | 24 | 0 |  |  |  | hemolysis at 40 µM [20]: 98%; hemolysis at 60 µM [21]: 99%; hemolysis at 120 µM [23]: 100%; hemolysis at 480 µM [26]: 100% |
| CC(=O)N1CCN(c2ccc(OCC3COC(Cn4ccnc4)(c4ccc(Cl)cc4Cl)O3)cc2)CC1 (configuration not stated) [KETOCONAZOLE] |  | 7.3 µM (≈ 3.88 µg/mL) |  |  |  |  | 7.3 µM (≈ 3.88 µg/mL) | 16.6 µM (≈ 8.82 µg/mL) |  |  |  |  |  | 16.6 µM (≈ 8.82 µg/mL) |  |  |  |  |  |  |  |
| CC1(C)S[C@@H]2[C@H](NC(=O)[C@H](N)c3ccc(O)cc3)C(=O)N2[C@H]1C(=O)O [AMOXICILLIN] | 85.6 µM (≈ 31.3 µg/mL) |  |  |  | 94.4 µM (≈ 34.5 µg/mL) | 85.6 µM (≈ 31.3 µg/mL) |  |  |  |  |  |  |  |  |  |  |  |  | 94.4 µM (≈ 34.5 µg/mL) |  |  |
| CC1COc2c(N3CCN(C)CC3)c(F)cc3c(=O)c(C(=O)O)cn1c23 (configuration not stated) [OFLOXACIN] |  |  | 8.5 µM (≈ 3.07 µg/mL) |  |  |  |  |  |  |  |  | 2.4 µM (≈ 0.867 µg/mL) |  |  |  |  |  | 4.1 µM (≈ 1.48 µg/mL) |  | 2.4 (≈ 0.867 µg/mL) |  |

From ChEMBL document CHEMBL4622868, “Design and synthesis of amphiphilic 2-hydroxybenzylphosphonium salts with antimicrobial and antitumor dual action” (Bioorg Med Chem Lett, 2020)
